In patent US20020143064A1, “Novel use of compounds of the chalcones class” (priority 2000, published 2002):

system: HDMEC cells (Human Dermal Microvascular Endothelial Cells); assay: Detachment of endothelial cells in vitro (HDMEC detachment test); assay type: cell-based; details: Endothelial cell, 2 h, 1 μM compound, two hours treatment, plates precoated with fibronectin, vitronectin or gelatin, calcein fluorescence, relative to untreated control, mean of six samples, >=15% regarded as significant, read-out: Percentage of detachment of HDMEC cells induced by 1 μM of compound
Description: A test for the determination of the detachment of endothelial cells has been developed in order to select products with respect to their “in vitro” activity. Such test was employed in the present invention. By way of this test, the endothelial cells were inoculated in plates, the bottom of which were covered with at least one binding agent, for example, chosen from gelatin, fibronectin, and vitronectin. The inoculated endothelial cells were then cultured. The cultured endothelial cells were treated with a medium comprising the test compound. The cells were then labeled with a fluorescent substance. The detached cells were removed by washing; and the fluorescence of the remaining cells was counted with a fluorimeter.
This test measures the detachment of endothelial cells cultured on substrata based on at least one binding agent, for example, chosen from fibronectin, vitronectin, and gelatin. Generally, one day after the cells were seeded in plates, which comprised, for example, 96 wells, the culture medium was replaced by a medium, which comprised the test compound in the absence of serum. The same preparation was prepared six times at three different concentrations ([…]) and the control was prepared six times without addition of antivascular product. After the cells were treated for two hours with the test substance, the cells were labeled with calcein AM (1.6 μg/ml) in culture medium supplemented with 0.1% of BSA. The cells that detached were removed by washing with culture medium comprising 0.1% of bovine serum albumin. 100 μl of medium were then added to each well. The fluorescence of the remaining cells was counted with a fluorimeter. The data obtained is expressed with respect to the control (untreated cells).
The evaluation of the detachment of endothelial cells in vitro was determined in the following way: HDMEC cells (Human Dermal Microvascular Endothelial Cells, Promocell, c-122102) were cultured in an ECGM-MV medium which comprised 5% of foetal calf serum, growth factors (EGF 10 ng/ml, hydrocortisone 1 μg/ml, 0.4% growth supplement with heparin) and antibiotics (amphotericin 50 ng/ml, gentamicin 50 μg/ml). For the detachment test, the HDMECs were inoculated at 5000 cells in clear-bottomed 96-well plates (Costar) precoated with fibronectin (10 μg/ml) or vitronectin (1 μg/ml) or gelatin. Twenty four hours later, the culture medium was replaced with ECGM-MV 0.1% BSA medium comprising the products shown. The concentrations tested were 0.1, 0.3 and 1 μM for each product. After treating for two hours, the cells were labeled for one hour with calcein (1.6 μg/ml, Molecular Probes) in ECGM-MV 0.1% BSA medium. The detached cells were subsequently removed by washing with ECGM-MV 0.1% BSA medium; 100 μl of medium was added to each well. The fluorescence of the cells which remained attached to the substratum of the well were counted using a fluorimeter, Spectrafluor Plus (Tecan, excitation 485 nm and emission 535 nm).
A cell detachment effect of greater than or equal to 15% is regarded as significant.

Compared with `COc1cc(C(=O)/C(Cl)=C/c2ccc(N(C)C)cc2)cc(OC)c1OC` [Example 8], `COc1cc(C(=O)/C(C)=C/c2ccc(N(C)C)cc2)cc(OC)c1OC` [Example 5] is lower in inhibition at 1 µM: 23 to 43% for the first, 15% for the second.

First: CCN(CC)c1ccc(/C=C/C(=O)c2cc(OC)c(OC)c(OC)c2)cc1 [Example 11]
Second: CCN(CC)c1ccc(/C=C/C(=O)c2ccc(OC)c(OC)c2OC)cc1 [Example 9]
The inhibition at 1 µM of the first is higher: 20% for the first, 19% for the second.

`COc1ccc(C(=O)/C(Br)=C/c2ccc(N(C)C)cc2)c(OC)c1OC` [Example 13] and `COc1ccc(C(=O)/C(Cl)=C/c2ccc(N(C)C)cc2)c(OC)c1OC` [Example 7] cannot be ordered by inhibition at 1 µM: 23 to 34% for the first, 22 to 42% for the second.

Compared with `COc1ccc(OC)c(C(=O)/C=C/c2ccc(NC(C)=O)cc2)c1` [Comparative Example 1, reference compound], `COc1ccc(OC)c(C(=O)/C=C/c2ccc(N(C)C)cc2)c1` [Example 4] is higher in inhibition at 1 µM: 2% for the first, 18 to 19% for the second.

Compared with `CCN(CC)c1ccc(/C=C(\C)C(=O)c2ccc(OC)c(OC)c2OC)cc1` [Example 6], `CCN(CC)c1ccc(/C=C(\C)C(=O)c2cc(OC)ccc2OC)cc1` [Example 2] is lower in inhibition at 1 µM: 35 to 41% for the first, 20 to 23% for the second.

`COc1ccc(OC)c(C(=O)/C(Cl)=C/c2ccc(N(C)C)cc2)c1` [Example 3] and `COc1ccc(OC)c(C(=O)/C(C)=C/c2ccc(N(C)C)cc2)c1` [Example 1] cannot be ordered by inhibition at 1 µM: 25 to 29% for the first, 23 to 49% for the second.

First: CC/C(=C\c1ccc(N(C)C)cc1)C(=O)c1ccc(OC)c(OC)c1OC [Example 10]
Second: COc1ccc(C(=O)/C=C/c2ccc(N(C)C)cc2)c(OC)c1OC [Example 14]
The inhibition at 1 µM of the first is lower: 15% for the first, 18 to 20% for the second.

Work on `CCCCNc1ccc(/C=C(\C)C(=O)c2cc(OC)c(OC)c(OC)c2)cc1` [Comparative Example 2, reference compound] yielded an inhibition at 1 µM of 6%.
